The test system of one assay is HIV-1BAKI. In words: Anti-HIV activity, clinical isolate HIV-1BAKI in PBL. The format is cell-based. As to the method:
(§1) The compounds of the invention were also evaluated against various other HIV strains and cell lines utilizing the assay methodology described above. The compounds were additionally evaluated against clinical isolates of HIV strains.

The subject of another assay is HIV-1WEIO. In words: Anti-HIV activity, clinical isolate HIV-1WEIO in PBL. Particulars: Human immunodeficiency virus 1. The assay is classed as cell-based. As to the method:
as §1

Another assay has as its system HIV-1WOME. Kind of assay: Anti-HIV activity, clinical isolate HIV-1WOME in PBL. The assay is classed as cell-based. Particulars: Human immunodeficiency virus 1. As to the method:
as §1

The next assay has as its system HIV-1. Kind of assay: CEM cell assay, anti-HIV-1 activity. The assay is classed as cell-based. Particulars: Human immunodeficiency virus 1, CCRF-CEM, HIV-1, 6 or 7 days, read-out: EC50 (Effective Concentration which protects cells from viral cytopathic effects). In outline:
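CEM T4 lymphocytes infected with HIV at virus:cell ratio ~0.05, then treated with half-log10 dilutions of compound from DMSO stock and incubated 6 or 7 days at 37° in 5% CO2. Protection from virus-induced cell killing was read by XTT formazan absorbance and microscopy versus drug-treated noninfected cells and untreated controls.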
On the technique in general: Damage to the host cells serves as the signal in cytopathic effect assays.

In a further assay the test system is HIV-1RF. In words: Anti-HIV activity, HIV-1RF in CEM cells. The assay is classed as cell-based. As to conditions: Human immunodeficiency virus 1, CCRF-CEM; CEM, HIV-1RF; read-out: EC50. As to the method:
Yet another test system employed to determine antiviral activity is called the CEM cell assay.
T4 lymphocytes (CEM cell line) are exposed to HIV at a virus to cell ratio approximately 0.05, and plated along with noninfected control cells in 96-well microliter plates.
The candidate agent is dissolved in dimethyl sulfoxide (unless otherwise noted), then diluted 1:200 in cell culture medium. Further dilutions (half-log10) are prepared before adding to an equal volume of medium containing either infected or noninfected cells. Cultures are incubated at 37° in a 5% carbon dioxide atmosphere for 6 or 7 days. The tetrazolium salt, XTT, is added to all wells, and cultures are incubated to allow formazan color development by viable cells (J. National Cancer Institute, 1989;81:577-586). Individual wells are analyzed spectrophotometrically to quantitate formazan production, and in addition are viewed microscopically for detection of viable cells confirmation of protective activity.
Drug-tested virus-infected cells are compared with drug-treated noninfected cells and with other appropriate controls (untreated infected and untreated noninfected cells, drug-contain wells without cells, etc.) on the same plate. Data are reviewed in comparison with other tests done at the same time and a determination about activity is made.
as §1

Assay [1] concerns HIV-1A17. In words: Anti-HIV activity, HIV-1A17 in MT-4 cells. The format is cell-based. As to conditions: Human immunodeficiency virus 1, MT4. As to the method:
as §1

In another assay the test system is HIV-16R. In words: Anti-HIV activity, HIV-16R in MT-4 cells. The assay is classed as cell-based, HIV-1. As to conditions: Human immunodeficiency virus 1, MT4. As to the method:
as §1

Assay [2] deals with HIV-1A17. In words: Anti-HIV activity, HIV-1A17 in MT-2 cells. The format is cell-based. Particulars: Human immunodeficiency virus 1, MT2. As to the method: as §1
Where [3] appears, read: Human immunodeficiency virus 1, PBL.

For `CC(=O)Nc1ccc(SSc2ccc(NC(C)=O)cc2C(N)=O)c(C(N)=O)c1` [Example 9, 2,2'-Dithiobis(5-acetylamino)benzamide], the EC50 with HIV-1BAKI (setting [3]) came to 1800 nM; with HIV-1WEIO, 7500 nM; in the assay on HIV-1WOME, 5700 nM; in the assay with HIV-1, 5200 nM; with HIV-1RF it was 400 nM; in the assay with HIV-1A17 [1], 2400 nM.
On to `NS(=O)(=O)c1ccc(NC(=O)c2ccccc2SSc2ccccc2C(=O)Nc2ccc(S(N)(=O)=O)cc2)cc1` [Example 1], for which the EC50 with HIV-16R amounted to 1900 nM; with HIV-1BAKI (setting [3]), 300 nM; in the assay with HIV-1BAKI (PBL), 250 nM; in the assay with HIV-1WEIO, 3500 nM; in the assay on HIV-1WOME, 4000 nM; with HIV-1, 2900 nM. Moreover, the EC50 is 2300 nM with HIV-1RF, 600 nM in the assay on HIV-1A17 [2] and 600 nM in the assay on HIV-1A17 [1].

The values are drawn from patent US5734081A, “Arylthio compounds” (Warner-Lambert Company, priority 1995, dated 1998).
